Laboratory results: PubChem BioAssay (NCI)
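A five-concentration, 48-hour dose response in 96-well plates underlies each endpoint, interpolated linearly between surrounding concentrations. GI50 = concentration required for 50% inhibition of growth. TGI marks complete inhibition of growth.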

How the values were obtained:
Experiment in all cases: NCI tumour cell line growth inhibition, 48 h
RPMI-8226 leukemia = system: RPMI-8226 leukemia
NCI/ADR-RES ovarian = system: NCI/ADR-RES ovarian
HCT-15 colon = system: HCT-15 colon
M14 melanoma = system: M14 melanoma
NCI-H226 lung = system: NCI-H226 lung
MDA-MB-468 breast = system: MDA-MB-468 breast
NCI-H460 lung = system: NCI-H460 lung
COLO 205 colon = system: COLO 205 colon
RXF 393 renal = system: RXF 393 renal
NCI-H23 lung = system: NCI-H23 lung
LOX IMVI melanoma = system: LOX IMVI melanoma
U251 CNS = system: U251 CNS
KM12 colon = system: KM12 colon
OVCAR-4 ovarian = system: OVCAR-4 ovarian
MDA-MB-435 = system: MDA-MB-435
K-562 leukemia = system: K-562 leukemia
OVCAR-8 ovarian = system: OVCAR-8 ovarian
OVCAR-5 ovarian = system: OVCAR-5 ovarian
MOLT-4 leukemia = system: MOLT-4 leukemia
A549 NSCLC = system: A549 NSCLC
OVCAR-3 ovarian = system: OVCAR-3 ovarian
SW-620 colon = system: SW-620 colon
EKVX NSCLC = system: EKVX NSCLC
SF-539 CNS = system: SF-539 CNS
SK-MEL-28 melanoma = system: SK-MEL-28 melanoma
HOP-62 NSCLC = system: HOP-62 NSCLC
MALME-3M melanoma = system: MALME-3M melanoma
T-47D breast = system: T-47D breast
A498 renal = system: A498 renal
NCI-H522 lung = system: NCI-H522 lung
HOP-92 NSCLC = system: HOP-92 NSCLC
CCRF-CEM leukemia = system: CCRF-CEM leukemia
786-0 renal = system: 786-0 renal
IGROV1 ovarian = system: IGROV1 ovarian
SNB-19 CNS = system: SNB-19 CNS
MCF7 breast = system: MCF7 breast
HL-60(TB) leukemia = system: HL-60(TB) leukemia
SF-295 CNS = system: SF-295 CNS
ACHN renal = system: ACHN renal
SK-MEL-5 melanoma = system: SK-MEL-5 melanoma
SR leukemia = system: SR leukemia
SN12C renal = system: SN12C renal
HS 578T breast = system: HS 578T breast
CAKI-1 renal = system: CAKI-1 renal
HCC-2998 colon = system: HCC-2998 colon
SK-OV-3 ovarian = system: SK-OV-3 ovarian
HCT-116 colon = system: HCT-116 colon
UACC-62 melanoma = system: UACC-62 melanoma
UACC-257 melanoma = system: UACC-257 melanoma
PC-3 prostate = system: PC-3 prostate
SF-268 CNS = system: SF-268 CNS
DU-145 prostate = system: DU-145 prostate
HT29 colon = system: HT29 colon
TK-10 renal = system: TK-10 renal
BT-549 breast = system: BT-549 breast
UO-31 renal = system: UO-31 renal
SNB-75 CNS = system: SNB-75 CNS
SK-MEL-2 melanoma = system: SK-MEL-2 melanoma
MDA-MB-231 breast = system: MDA-MB-231 breast

## O=C1N/C(=N\c2nccs2)S/C1=C\c1ccc([N+](=O)[O-])cc1
RPMI-8226 leukemia
  GI50: 3.56 µM
  TGI: 31.6 µM
NCI/ADR-RES ovarian
  GI50: 5.03 µM
  TGI: 37.3 µM
HCT-15 colon
  GI50: 4.29 µM
  TGI: > 100 µM
M14 melanoma
  GI50: 9.86 µM
  TGI: 39.6 µM
NCI-H226 lung
  GI50: 12.5 µM
  TGI: 68.2 µM
MDA-MB-468 breast
  GI50: 4.62 µM
  TGI: 25.8 µM
NCI-H460 lung
  GI50: 4.12 µM
  TGI: 19.7 µM
COLO 205 colon
  GI50: 7.7 µM
  TGI: 23.9 µM
RXF 393 renal
  GI50: 12.4 µM
  TGI: 46.3 µM
NCI-H23 lung
  GI50: 6.8 µM
  TGI: 70 µM
LOX IMVI melanoma
  GI50: 4.75 µM
  TGI: 34.2 µM
U251 CNS
  GI50: 4.6 µM
  TGI: > 100 µM
KM12 colon
  GI50: 5.91 µM
  TGI: 32.4 µM
OVCAR-4 ovarian
  GI50: 7.01 µM
  TGI: 67.5 µM
MDA-MB-435
  GI50: 12 µM
  TGI: > 100 µM
K-562 leukemia
  GI50: 4.24 µM
  TGI: > 100 µM
OVCAR-8 ovarian
  GI50: 6.43 µM
  TGI: 68.9 µM
OVCAR-5 ovarian
  GI50: 16.1 µM
  TGI: 95.6 µM
MOLT-4 leukemia
  GI50: 2.54 µM
  TGI: 7.5 µM
A549 NSCLC
  GI50: 4.89 µM
  TGI: > 100 µM
OVCAR-3 ovarian
  GI50: 4.73 µM
  TGI: 29.4 µM
SW-620 colon
  GI50: 4.77 µM
  TGI: > 100 µM
EKVX NSCLC
  GI50: 4.71 µM
  TGI: 27.8 µM
SF-539 CNS
  GI50: 5.62 µM
  TGI: 26.9 µM
SK-MEL-28 melanoma
  GI50: 14 µM
  TGI: > 100 µM
HOP-62 NSCLC
  GI50: 6.77 µM
  TGI: 60.7 µM
MALME-3M melanoma
  GI50: 11.2 µM
  TGI: 27.2 µM
T-47D breast
  GI50: 5.05 µM
  TGI: 53.1 µM
A498 renal
  GI50: 14.5 µM
  TGI: 39.8 µM
NCI-H522 lung
  GI50: 7.47 µM
  TGI: 33.9 µM
HOP-92 NSCLC
  GI50: 4.46 µM
  TGI: 38.3 µM
CCRF-CEM leukemia
  GI50: 3.84 µM
  TGI: 32.5 µM
786-0 renal
  GI50: 6.17 µM
  TGI: 72.9 µM
IGROV1 ovarian
  GI50: 6.89 µM
  TGI: 30.8 µM
SNB-19 CNS
  GI50: 3.58 µM
  TGI: 70.6 µM
MCF7 breast
  GI50: 4.44 µM
  TGI: 20.4 µM
HL-60(TB) leukemia
  GI50: 3.62 µM
  TGI: 24.5 µM
SF-295 CNS
  GI50: 5.11 µM
  TGI: 40.5 µM
ACHN renal
  GI50: 5.49 µM
  TGI: 35.2 µM
SK-MEL-5 melanoma
  GI50: 7.45 µM
  TGI: 20.2 µM
SR leukemia
  GI50: 3.41 µM
  TGI: 18 µM
SN12C renal
  GI50: 5.47 µM
  TGI: 63.5 µM
HS 578T breast
  GI50: 11.6 µM
  TGI: 81.6 µM
CAKI-1 renal
  GI50: 12.7 µM
  TGI: 82.8 µM
HCC-2998 colon
  GI50: 6.93 µM
  TGI: 30.4 µM
SK-OV-3 ovarian
  GI50: 15.7 µM
  TGI: 63.9 µM
HCT-116 colon
  GI50: 4.44 µM
  TGI: 19 µM
UACC-62 melanoma
  GI50: 5.08 µM
  TGI: 23.1 µM
UACC-257 melanoma
  GI50: 12.4 µM
  TGI: 32.5 µM
PC-3 prostate
  GI50: 5.98 µM
  TGI: > 100 µM
SF-268 CNS
  GI50: 10.1 µM
  TGI: > 100 µM
DU-145 prostate
  GI50: 11.9 µM
  TGI: > 100 µM
HT29 colon
  GI50: 18.5 µM
  TGI: > 100 µM
TK-10 renal
  GI50: 12.8 µM
  TGI: 59.3 µM
BT-549 breast
  GI50: 6.87 µM
  TGI: 41.4 µM

## COc1ccc2c(c1)c(-c1cc(N)n3nc(-c4cn(C)c5ccccc45)cc3n1)cn2C
RPMI-8226 leukemia
  GI50: 2.08 µM
  TGI: 6.07 µM
NCI/ADR-RES ovarian
  GI50: 2.03 µM
  TGI: 4.18 µM
HCT-15 colon
  GI50: 1.04 µM
  TGI: 2.68 µM
M14 melanoma
  GI50: 1.85 µM
  TGI: 3.59 µM
UO-31 renal
  GI50: 1.59 µM
  TGI: 2.98 µM
SNB-75 CNS
  GI50: 1.43 µM
  TGI: 2.8 µM
NCI-H226 lung
  GI50: 2.04 µM
  TGI: 4.93 µM
SK-MEL-2 melanoma
  GI50: 1.7 µM
  TGI: 3.23 µM
MDA-MB-468 breast
  GI50: 1.67 µM
  TGI: 3.31 µM
NCI-H460 lung
  GI50: 1.9 µM
  TGI: 3.6 µM
COLO 205 colon
  GI50: 1.92 µM
  TGI: 3.67 µM
RXF 393 renal
  GI50: 1.85 µM
  TGI: 3.41 µM
NCI-H23 lung
  GI50: 1.97 µM
  TGI: 4.09 µM
U251 CNS
  GI50: 1.84 µM
  TGI: 3.44 µM
KM12 colon
  GI50: 2.1 µM
  TGI: 4.48 µM
OVCAR-4 ovarian
  GI50: 1.82 µM
  TGI: 3.28 µM
MDA-MB-435
  GI50: 1.76 µM
  TGI: 3.21 µM
K-562 leukemia
  GI50: 0.401 µM
  TGI: 4.5 µM
OVCAR-8 ovarian
  GI50: 1.88 µM
  TGI: 3.53 µM
OVCAR-5 ovarian
  GI50: 1.95 µM
  TGI: 3.85 µM
MOLT-4 leukemia
  GI50: 1.69 µM
  TGI: 5.41 µM
A549 NSCLC
  GI50: 1.81 µM
  TGI: 3.51 µM
OVCAR-3 ovarian
  GI50: 1.94 µM
  TGI: 3.68 µM
SW-620 colon
  GI50: 1.8 µM
  TGI: 3.6 µM
EKVX NSCLC
  GI50: 1.46 µM
  TGI: 3.3 µM
SF-539 CNS
  GI50: 1.7 µM
  TGI: 3.19 µM
SK-MEL-28 melanoma
  GI50: 1.8 µM
  TGI: 3.32 µM
HOP-62 NSCLC
  GI50: 1.73 µM
  TGI: 3.35 µM
MALME-3M melanoma
  GI50: 1.7 µM
  TGI: 3.09 µM
T-47D breast
  GI50: 1.94 µM
  TGI: 4.15 µM
A498 renal
  GI50: 1.76 µM
  TGI: 3.27 µM
NCI-H522 lung
  GI50: 1.65 µM
  TGI: 3.15 µM
HOP-92 NSCLC
  GI50: 1.76 µM
  TGI: 3.41 µM
CCRF-CEM leukemia
  GI50: 0.864 µM
  TGI: 5.38 µM
786-0 renal
  GI50: 1.55 µM
  TGI: 2.97 µM
IGROV1 ovarian
  GI50: 1.73 µM
  TGI: 3.25 µM
SNB-19 CNS
  GI50: 2.18 µM
  TGI: 5 µM
MCF7 breast
  GI50: 0.934 µM
  TGI: 2.52 µM
HL-60(TB) leukemia
  GI50: 1.4 µM
  TGI: 3.94 µM
SF-295 CNS
  GI50: 1.78 µM
  TGI: 3.43 µM
ACHN renal
  GI50: 1.65 µM
  TGI: 3.02 µM
SK-MEL-5 melanoma
  GI50: 1.81 µM
  TGI: 3.23 µM
SR leukemia
  GI50: 0.288 µM
  TGI: 1.13 µM
SN12C renal
  GI50: 1.66 µM
  TGI: 3.05 µM
HS 578T breast
  GI50: 2.18 µM
  TGI: 4.77 µM
CAKI-1 renal
  GI50: 1.71 µM
  TGI: 3.14 µM
HCC-2998 colon
  GI50: 2.09 µM
  TGI: 3.65 µM
SK-OV-3 ovarian
  GI50: 1.92 µM
  TGI: 3.51 µM
HCT-116 colon
  GI50: 1.16 µM
  TGI: 2.42 µM
MDA-MB-231 breast
  GI50: 1.82 µM
  TGI: 3.27 µM
UACC-62 melanoma
  GI50: 1.73 µM
  TGI: 3.14 µM
UACC-257 melanoma
  GI50: 1.77 µM
  TGI: 3.26 µM
PC-3 prostate
  GI50: 1.8 µM
  TGI: 3.69 µM
SF-268 CNS
  GI50: 1.97 µM
  TGI: 4.08 µM
DU-145 prostate
  GI50: 2.05 µM
  TGI: 4.01 µM
HT29 colon
  GI50: 1.86 µM
  TGI: 3.38 µM
TK-10 renal
  GI50: 1.91 µM
  TGI: 3.36 µM
BT-549 breast
  GI50: 1.87 µM
  TGI: 3.57 µM
